Data reported in the CheMixHub viscosity set.
± gives the uncertainty stated by the source.

Test: xn = mol fraction of the nth substance listed

CCCCOCCOCCOCCCC + CC1COC(=O)O1
viscosity [mPa·s], 101.3 kPa
Conditions	298.15 K	308.15 K	318.15 K
x1 = 0.007	2.562 ± 0.032	2.064 ± 0.026	1.704 ± 0.022
x1 = 0.0158	2.574 ± 0.032	2.086 ± 0.026	1.721 ± 0.022
x1 = 0.059	2.676 ± 0.033	2.174 ± 0.027	1.735 ± 0.022
x1 = 0.1317	2.748 ± 0.035	2.244 ± 0.029	1.768 ± 0.023
x1 = 0.2166	2.735 ± 0.035	2.263 ± 0.029	1.773 ± 0.023
x1 = 0.3183	2.7 ± 0.035	2.187 ± 0.029	1.729 ± 0.023
x1 = 0.356	2.674 ± 0.035	2.161 ± 0.029	1.712 ± 0.023
x1 = 0.3871	2.649 ± 0.035	2.141 ± 0.029	1.695 ± 0.023
x1 = 0.4126	2.635 ± 0.035	2.129 ± 0.029	1.686 ± 0.023
x1 = 0.4929	2.579 ± 0.035	2.086 ± 0.029	1.649 ± 0.023
x1 = 0.5658	2.534 ± 0.035	2.051 ± 0.028	1.623 ± 0.023
x1 = 0.5869	2.526 ± 0.035	2.045 ± 0.029	1.62 ± 0.023
x1 = 0.6616	2.487 ± 0.035	2.013 ± 0.029	1.595 ± 0.023
x1 = 0.7058	2.475 ± 0.035	1.999 ± 0.029	1.584 ± 0.023
x1 = 0.748	2.469 ± 0.035	1.992 ± 0.029	1.566 ± 0.023
x1 = 0.8266	2.402 ± 0.035	1.954 ± 0.029	1.537 ± 0.023
x1 = 0.9183	2.323 ± 0.035	1.899 ± 0.029	1.489 ± 0.023

CCCCCCCCCCCC(=O)O + CC(C)[C@@H]1CC[C@@H](C)C[C@H]1O
viscosity [mPa·s]
Conditions	293.15 K	298.15 K	303.15 K	308.15 K	313.15 K	318.15 K	323.15 K
100 kPa, x1 = 0.25	–	28.1 ± 0.26	20.91 ± 0.19	15.93 ± 0.15	12.4 ± 0.11	9.84 ± 0.09	7.94 ± 0.07
100 kPa, x2 = 0.33	33.06 ± 0.56	24.42 ± 0.41	18.63 ± 0.32	14.51 ± 0.24	11.45 ± 0.19	9.293 ± 0.16	7.61 ± 0.13
101 kPa, x1 = 0.333	21.81 ± 0.85	–	12.5 ± 0.5	–	7.657 ± 0.3	–	5.112 ± 0.2

C=C1CCC2CC1C2(C)C (configuration not stated) + Cc1cccc(C)c1
viscosity [mPa·s], 101 kPa
Conditions	x2 = 0.2415	x2 = 0.3531	x2 = 0.4592	x2 = 0.5602	x2 = 0.6564	x2 = 0.7482	x2 = 0.8359	x2 = 0.9198
303.15 K	1.225 ± 0.029	1.049 ± 0.025	0.915 ± 0.022	0.799 ± 0.02	0.737 ± 0.019	0.682 ± 0.017	0.637 ± 0.016	0.602 ± 0.016
308.5 K	1.137 ± 0.027	0.98 ± 0.024	0.85 ± 0.021	0.748 ± 0.019	0.685 ± 0.017	0.639 ± 0.017	0.6 ± 0.016	0.568 ± 0.015
313.15 K	1.05 ± 0.025	0.91 ± 0.022	0.787 ± 0.02	0.697 ± 0.018	0.637 ± 0.016	0.593 ± 0.016	0.563 ± 0.015	0.542 ± 0.014
